{
  "source": "patent US20070010484A1",
  "about": "“Method for treating or inhibiting the effects of injuries or diseases that result in neuronal degeneration and method for promoting neurogenesis” (YEDA RESEARCH AND DEVELOPMENT CO. LTD., priority 2003, published 2007)",
  "key": {"SOCS-3": {"test_system": "SOCS-3", "experiment": "Western blot of SOCS-3 in T cells", "type": "cell-based, human", "settings": "T cells pretreated with CSPG-DS, relative to untreated T cells", "protocol": "Western blot analysis of T-cell nuclear extracts. Purified T cells (5×10^6) were preincubated for 2 h with different concentrations of CSPG-DS. The cells were then replated at the same CSPG-DS concentration on 24-well plates pre-coated for 24 h with anti-CD3 mAb. The T cells were lysed in 10 mM HEPES, 1.5 mM MgCl2, 1 mM dithiothreitol, 1 mM PMSF, and 0.5% Nonidet P-40 (buffer A). The lysates were incubated on ice for 10 min and centrifuged at 2000 rpm for 10 min at 4° C. The supernatants (cytoplasmic extracts) were transferred and the pellets (nuclei) were suspended in buffer containing 30 mM HEPES, 450 mM NaCl, 25% glycerol, 0.5 mM EDTA, 6 mM dithiothreitol, 12 mM MgCl2 1 mM PMSF, 10 μg/ml leupeptin, 10 μg/ml pepstatin, and 1% phosphatase inhibitor cocktail (buffer B), and the suspension was incubated on ice for 30 min. The lysates were cleared by centrifugation (30 min, 14×10^3 rpm, 4° C.), and the resulting supernatants were analyzed for protein content. Sample buffer was added, the mixture was boiled, and the samples containing equal amounts of proteins were separated on 10% SDS-PAGE gel and transferred to nitrocellulose membranes. […]"}, "[1]": {"test_system": "retinal ganglion cells (RGCs)", "protocol": "Glutamate-induced toxicity: C57Bl/6J mice were anesthetized by intraperitoneal (i.p.) injection of ketamine (80 mg/kg; Fort Dodge Laboratories, Fort Dodge, Iowa) and xylazine (16 mg/kg; Vitamed, Israel). Their right eyes were punctured with a 27 gauge needle in the upper part of the sclera and a hamilton syringe with a 30-gauge needle was inserted as far as the vitreal body. Each mouse was injected with a total volume of 1 μl saline containing L-glutamate (100 nmol). Mice in one group were also injected intravenously (i.v.) with 5 μg of CSPG-DSs in 200 μl saline (Schori, 2001).\nLabeling of retinal ganglion cells: Mice were anesthetized as described above and placed in a stereotactic device. The skull was exposed and the bregma identified and marked. […] A window was drilled in the scalp above the designated coordinates in the right and left hemispheres. […]\nAssessment of retinal ganglion cell survival: Retinas were examined for labeled retinal ganglion cells (RGCs) by fluorescence microscopy. Labeled cells from four to six fields of identical size (0.076 mm^2) were counted. […] Cells were counted under the fluorescence microscope (magnification ×800) by observers blinded to the treatment received by the mice. The average number of RGCs per field was calculated for each retina. The number of RGCs in the contralateral (uninjured) eye was also counted and served as an internal control."}, "IGF-1": {"test_system": "IGF-1", "experiment": "IGF-1 expression in primary microglial cultures, immunocytochemistry", "type": "cell-based, C57Bl/6J mice", "protocol": "Primary microglial culture. Brains from neonatal (P0-P1) C57Bl/6J mice were stripped of their meninges and minced with scissors under a dissecting microscope (Zeiss, Stemi DV4, Germany) in Leibovitz-15 medium (Biological Industries, Beit Ha-Emek, Israel). After trypsinization (0.5% trypsin, 10 min, 37° C./5% CO2), the tissue was triturated. The cell suspension was washed in culture medium for glial cells (DMEM supplemented with 10% fetal calf serum (FCS; Sigma-Aldrich, Rehovot, Israel), 1-glutamine (1 mM), sodium pyruvate (1 mM), penicillin (100 U/ml), and streptomycin ([…])) and cultured at 37° C./5% CO2 in 75-cm2 Falcon tissue-culture flasks (BD Biosciences) coated with poly-D-lysine (PDL) ([…]; Sigma-Aldrich, Rehovot) in borate buffer (2.37 g borax and 1.55 g boric acid dissolved in 500 ml sterile water, pH 8.4) for 1 h, then rinsed thoroughly with sterile, glass-distilled water. Half of the medium was changed after 6 h in culture and every 2nd day thereafter, starting on day 2, for a total culture time of 10-14 days. […]"}, "PC12 cells": {"test_system": "PC12 cells", "experiment": "LPA-induced neurite retraction in differentiated PC12 cells", "type": "cell-based, rat", "protocol": "PC12 cell line: Rat pheochromocytoma (PC12) cells were cultured in DMEM containing 8% horse serum and either 8% FCS (culture medium) or 1% FCS (differentiation medium), and antibiotics. For assays of neurite outgrowth, the cells were plated (10^5 cell/well) on 13-mm glass coverslips, precoated with collagen (500 μg/ml) in 24-well plates. Treatment of PC12 cells with lysophosphatidic acid (LPA). PC12 cells were placed and were differentiated for 3 days in the presence of 100 ng/ml NGF, in collagen-precoated culture dishes (Corning). […] The cells were then fixed with 4% paraformaldehyde (PFA) and analyzed by Nomarski microscopy. The longest neurite of each cell was measured and the results are expressed as their mean±SEM."}, "[2]": {"settings": "PC12 cells with LPA plus CSPG-DSs"}},
  "note": "Entries after “also recorded” stand apart in the source; their conditions may differ.",
  "data": [
    {"smiles": "CC(=O)N[C@H]1C(O)O[C@H](COS(=O)(=O)O)[C@H](O)[C@@H]1O[C@@H]1OC(C(=O)O)=C[C@H](O)[C@H]1O", "note": "(stereo partly drawn) [CSPG-DS, 2-acetoamido-2-deoxy-3-O-(β-D-gluco-4-enepyranosyluronic acid)-6-O-sulfo-D-galactose]", "values": [
      {"measurement": "SOCS-3 level", "setting": "SOCS-3", "value": "increase"},
      {"measurement": "neuronal survival in the absence of glutamate", "setting": "[1]; intravitreal injection of CSPG-DSs, no glutamate", "value": "no effect"},
      {"measurement": "number of surviving RGCs per mm2", "setting": "[1]; mice, intravitreal toxic glutamate, single i.v. injection of sulfated CSPG-DSs (5 μg), assessed 1 week later, mean±SEM", "value": "1965±166", "unit": "per mm2"},
      {"measurement": "LPS-induced suppression of IGF-I expression", "setting": "IGF-1; microglia pre-incubated with CSPG-DS (25 or 50 μg/ml) 1 h, then LPS 24 h", "value": "attenuated"},
      {"measurement": "IGF-1 expression by microglia", "setting": "IGF-1; mouse primary microglia", "value": "high levels"},
      {"measurement": "LPA-induced neurite collapse / retraction", "setting": "PC12 cells; NGF-differentiated PC12 cells, LPA 1 μg/ml 20 min together with CSPG-DSs (5 or 50 μg/ml)", "value": "dose-dependent reversal of the retraction process; also recorded: prevented"},
      {"measurement": "mean neurite length", "setting": "PC12 cells; [2]", "value": "beneficial effect"},
      {"measurement": "number of neurite-bearing cells", "setting": "PC12 cells; [2]", "value": "beneficial effect"}
    ]}
  ]
}
